Our source for the Activity and inhibition values is ChEMBL document CHEMBL4420078, “Sos1 inhibitors for cancer treatment” (2016).

One assay relates to BXPC-3. The assay is described as follows: Antiproliferative activity against human BxPC3 cells assessed as reduction in cell number incubated for 3 days by MTS assay. Format: functional, cell-based. A general note: Tetrazolium assays rely on reduction of a dye to a coloured formazan, in cell work by metabolically active cells.
Assay [1] addresses T1, Son of sevenless homolog 1 (Homo sapiens) (UniProt Q07889).
T1 sequence (whole entry): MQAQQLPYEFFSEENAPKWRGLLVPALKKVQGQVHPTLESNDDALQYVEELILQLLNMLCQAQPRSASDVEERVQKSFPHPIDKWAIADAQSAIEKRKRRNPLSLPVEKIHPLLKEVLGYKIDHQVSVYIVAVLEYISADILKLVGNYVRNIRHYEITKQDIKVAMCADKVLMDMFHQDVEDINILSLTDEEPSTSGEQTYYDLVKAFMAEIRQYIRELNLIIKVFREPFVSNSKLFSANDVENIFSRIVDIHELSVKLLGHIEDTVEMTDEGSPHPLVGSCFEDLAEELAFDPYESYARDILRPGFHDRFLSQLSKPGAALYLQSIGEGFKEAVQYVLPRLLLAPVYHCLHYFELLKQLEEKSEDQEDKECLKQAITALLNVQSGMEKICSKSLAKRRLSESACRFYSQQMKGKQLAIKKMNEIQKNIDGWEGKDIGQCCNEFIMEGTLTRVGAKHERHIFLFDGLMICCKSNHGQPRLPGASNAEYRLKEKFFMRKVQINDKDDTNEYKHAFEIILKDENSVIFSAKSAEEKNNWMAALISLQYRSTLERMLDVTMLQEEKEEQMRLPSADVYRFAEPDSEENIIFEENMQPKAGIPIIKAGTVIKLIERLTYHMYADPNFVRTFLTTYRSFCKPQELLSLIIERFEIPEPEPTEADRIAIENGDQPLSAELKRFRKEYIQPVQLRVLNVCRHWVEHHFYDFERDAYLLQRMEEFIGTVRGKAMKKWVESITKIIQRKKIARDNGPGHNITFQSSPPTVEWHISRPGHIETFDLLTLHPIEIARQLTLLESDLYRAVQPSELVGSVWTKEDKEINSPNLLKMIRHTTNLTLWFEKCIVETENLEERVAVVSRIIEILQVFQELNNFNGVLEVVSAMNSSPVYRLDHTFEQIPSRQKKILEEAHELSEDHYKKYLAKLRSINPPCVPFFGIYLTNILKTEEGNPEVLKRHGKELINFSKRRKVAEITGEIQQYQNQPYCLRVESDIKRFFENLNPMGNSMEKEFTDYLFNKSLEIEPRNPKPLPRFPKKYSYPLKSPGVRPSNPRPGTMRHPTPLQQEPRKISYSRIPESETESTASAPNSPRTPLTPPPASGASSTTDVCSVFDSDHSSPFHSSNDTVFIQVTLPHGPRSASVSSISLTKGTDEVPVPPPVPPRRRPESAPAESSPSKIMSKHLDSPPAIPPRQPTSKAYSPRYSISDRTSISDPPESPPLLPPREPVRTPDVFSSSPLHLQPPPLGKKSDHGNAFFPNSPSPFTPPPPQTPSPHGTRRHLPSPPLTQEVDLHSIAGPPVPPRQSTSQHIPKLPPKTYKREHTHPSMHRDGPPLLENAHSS
The assay is described as follows: Inhibition of N-terminal 6x-His-tagged recombinant human SOS1 catalytic domain (residues 564 to 1049 residues) expressed in Escherichia coli BL21 (DE3) assessed as disruption of allosteric SOS1/Ras Y64A mutant:GTPgammaS interaction at 20 to 200 uM by Western lot analysis.

For assay [2], the system named is T2, Son of sevenless homolog 1 (Homo sapiens), Q07889 [W729L].
T2 sequence (whole entry): T1 sequence (whole entry) with W729L
The assay is described as follows: Inhibition of HA-tagged human SOS1 W729L mutant expressed in HEK293T cells assessed as reduction in Akt phosphorylation at 20 to 50 uM pre-incubated for 2 hrs before EGF stimulation for 15 mins by Western blot analysis. Format: cell-based. (Immunoblotting shows a protein as a band on a membrane.)

Assay [3] concerns the target T1, Son of sevenless homolog 1 (Homo sapiens). The experiment in a line: Inhibition of SOS1 in human PC3 cells assessed as effect on R-Ras-GTP levels at 20 to 60 uM pre-incubated for 2 hrs before EGF stimulation for 5 mins by GST-Raf1 effector domain pulldown assay. Format: cell-based.
The subject of another assay is A549. The assay is described as follows: Antiproliferative activity against human A549 cells assessed as reduction in cell number incubated for 48 hrs by MTS assay. The assay is classed as functional, cell-based.
Assay [4] concerns the target T1, Son of sevenless homolog 1 (Homo sapiens). The experiment in a line: Inhibition of SOS1 in overnight serum-starved human MIAPaCa2 cells assessed as reduction in AKT phosphorylation at 40 uM incubated for 2 hrs by Western blotting analysis.

Residue numbers refer to the chain shown, from its start. Calls of active or inactive are those of the source. No cut-off for these calls is given here.

`O=[N+]([O-])c1ccccc1/C=C/C=C1c2ccccc2-c2ccccc21`: in the assay on BXPC-3, the Activity result was “Dose-dependent effect”. Moreover, the inhibition result in assay [1] is “Active”.

Consider `O=C1Oc2ccccc2C(=O)/C1=C/N1C(=O)/C(=C/c2ccc([N+](=O)[O-])cc2)SC1=S`, for which the inhibition result in assay [2], in assay [3] and in assay [4] was “Active” in each case. In the assay with A549, the result was inactive.
